Laboratory results: publication PMC8830069, “Metallo-β-Lactamase Inhibitor Phosphonamidate Monoesters” (ACS Omega, 2022)

Experiments:
in vitro = type: cell-based; settings: human; cell viability after 24 hours incubation, at least two independent experiments; read-out: Cytotoxicity IC50 in HeLa cells
Procedure: The cytotoxicity of phosphonamidate monoesters was evaluated against HeLa cells (ATCC-CCL-2), which were maintained in Dulbecco’s modified Eagle medium (Thermo Fisher Scientific) supplemented with 10% (v/v) fetal bovine serum (Thermo Fisher Scientific), penicillin (100 units/mL), and streptomycin (100 μg/mL, both from Sigma) at 37 °C, 5% CO2. Cells were seeded in 96-well plates (Corning, Merck) at 20 × 10^3 cells/well and incubated for 24 h (37 °C, 5% CO2). Stock solutions of the compounds were prepared at 150 mM in DMSO (Sigma), and the cells were exposed to a serial dilution and incubated for 24 h. Subsequently, the cells were washed twice with culture medium, and the PrestoBlue reagent (Thermo Fischer Scientific) was directly added to the cells for cell viability determination (1:10 dilution in culture medium). Following recommended incubation times (manufacturer’s instructions), fluorescence was measured using a Spark plate reader (Tecan, Austria) at Ex/Em 560/590 nm and corrected for background fluorescence by including control wells containing only cell culture media (no cells). Data analysis was performed using GraphPad Prism 9.0.0 (GraphPad Software, USA). At least two independent experiments were performed.
Figure S1. Cytotoxicity dose-response curves of phosphonamidate monoesters as determined in HeLa cells. The cells were treated with the compounds at the indicated concentrations, and cell viability was measured after 24 hours incubation. The following IC50 values wer e determined to be (A) 69. 2 µM (SD = 1.0) for KAT -A-109-H2, (B) 201.4 µM (SD = 4.4) for KAT -A-102-H1 and (C) 90.7 µM (SD = 1.0) for KAT -A-118-H1. All remaining compounds (D - H) had IC50 values above 500 µM. Data is shown as mean ± SD of at least two independent experiments.
*A 1h, B 1e, C 1f, D 1a, E 1b, F 1d, G 1c. […]

GIM-1 = GIM-1 (Pseudomonas aeruginosa, UniProt Q704V1); assay: MBL inhibition assay, purified GIM-1, nitrocefin hydrolysis at 482 nm; type: biochemical; settings: for IC50 against purified GIM-1: nitrocefin reporter substrate, 1 nM enzyme, 2.5% DMSO, highest inhibitor concentration 800 μM, N.I. and P. not defined
Procedure: (§1) The inhibitory activities of 1a–h and 2 against the purified NDM-1, GIM-1, and VIM-2 enzymes were evaluated (IC50 data in Table 1). The inhibitory activity was measured by monitoring nitrocefin hydrolysis for VIM-2 and GIM-1 and that of imipenem for NDM-1[19] at λ 482 and 300 nm, respectively. […] This may indicate that unlike the sulfur of captopril, that of 1a and 2 might not coordinate the zinc ions in the active site. Alternatively, this may be a result of disulfide formation under the conditions of the enzyme assay. The hydrophobic 1f–h precipitated during the enzyme assay and their inhibitory activities could therefore not be reliably measured. This is not unusual as the binding cleft of MBL inhibitors is hydrophobic, and accordingly, their inhibitors typically have poor aqueous solubility.[20] The inhibitors may be solubilized by careful dilution of dimethylsulfoxide (DMSO) stock solutions; however, this was not successful for compounds 1f–h.
(§2) The inhibitory activity (IC50) of 1a–h was studied against the MBL enzymes NDM-1, GIM-1, and VIM-2. The buffer used for the studies contained 50 mM HEPES at pH 7.2, 10 μM ZnSO4, 2.5% DMSO, and 0.4 mg/mL bovine serum albumin, used as a prevention of protein unfolding and loss of activity. The enzyme concentration of NDM-1 was 10 nM, of GIM-1 1 nM, and of VIM-2 100 pM. The inhibitors were dissolved in 100% DMSO, and a twofold dilution series was made with a final 2.5% DMSO in the assay. The highest inhibitor concentration was 800 μM. The reporter substrate for VIM-2 and GIM-1 was nitrocefin, while for NDM-1 imipenem, and their absorbance (concentration) was followed at the wavelengths 482 and 300 nm, respectively. L-Captopril and EDTA-Na were used as positive and water and DMSO as negative controls. Measurements were read for 30 min at 298 K.

NDM-1 [1] = biological target: T1, NDM-1 (Klebsiella pneumoniae, UniProt C7C422); assay: MBL inhibition assay, purified NDM-1, imipenem hydrolysis at 300 nm; type: biochemical; settings: for IC50 against purified NDM-1: imipenem reporter substrate, 10 nM enzyme, 2.5% DMSO, highest inhibitor concentration 800 μM, N.I. and P. not defined
Procedure: as §1, §2

VIM-2 = VIM-2 (Escherichia coli, UniProt Q5U7L7); assay: MBL inhibition assay, purified VIM-2, nitrocefin hydrolysis at 482 nm; type: biochemical; settings: for IC50 against purified VIM-2: nitrocefin reporter substrate, 100 pM enzyme, 2.5% DMSO, highest inhibitor concentration 800 μM, N.I. and P. not defined
Procedure: as §1, §2

[2] = Solubility in the MIC assay; type: physicochemical; settings: Muller Hinton II broth
Procedure: (§3) The in vitro susceptibility of meropenem in combination with the different compounds was evaluated against E. coli expressing NDM-1 in a broth microdilution assay. A 96-well plate was prepared with the compounds in a twofold dilution series (final concentrations 1024–0.5 mg/L) in Muller Hinton II broth (MHB-II) in combination with 2, 4, or 8 mg/L meropenem. EDTA (100 μM) was used in combination with meropenem as control for inhibition of NDM-1. Three–five colonies of E. coli ATCC 25922 NDM-1 were suspended in 0.90% saline solution and adjusted to the 0.5 McFarland turbidity standard. The bacterial suspension was diluted in MHB-II and adjusted to a final inoculum of 5 × 10^5 CFU/mL.
Table S2. Susceptibility assay with E. coli ATCC 25922 NDM-1
Compound Minimum inhibitory concentration (mg/L)
Meropenem:compound ratio Meropenem

NDM-1 [3] = biological target: T1, NDM-1; assay: 1H,15N HSQC chemical shift titration and 15N-filtered HSQC-NOESY with 15N-labeled NDM-1; type: binding
Procedure: As binding-induced protein NMR chemical shift changes reveal the alteration of the local environment in the vicinity of the monitored nuclei, these are commonly acquired for identification of binding clefts. We monitored the weighted chemical shift changes, Δδ1H,15N, of uniformly ^15N-enriched backbone amide functionalities upon successive additions of the 0–2.370 mM ligand using ^1H,^15N HSQC experiments (Figure 5). Following literature examples,[31] chemical shift perturbations (CSPs) were considered to be significant (SSPs) in case the observed Δδ1H,15N was greater than the population mean plus the standard deviation (μ + 1σ). […] Some minor chemical shift variations were observed upon the addition of the co-solvents, as expected,[34] whereas neither protein precipitation nor alteration of the overall structure of NDM-1 was detected (Figures S3 and S4, Supporting Information). The chemical shift changes of 234 backbone amides were monitored. […]
Additional information about the binding event was obtained from 3D-^15N-filtered HSQC-NOESY (Figure S6, Supporting Information). […] Thus, in a filtered NOE experiment, only intermolecular cross-peaks are detected. […]
For the titrations, two ^15N-labeled NDM-1 (0.25 mM) batches were prepared. […] All experiments were recorded on a Bruker 600 MHz spectrometer at 310 K equipped with a 5 mm TCI cryogenic probe. […]

[4] = Solubility / aggregation in NMR buffer; type: physicochemical; settings: 20 mM K3PO4 aqueous buffer solution at pH 7; aggregation was observed
Procedure: As binding-induced protein NMR chemical shift changes reveal the alteration of the local environment in the vicinity of the monitored nuclei, these are commonly acquired for identification of binding clefts. We monitored the weighted chemical shift changes, Δδ1H,15N, of uniformly ^15N-enriched backbone amide functionalities upon successive additions of the 0–2.370 mM ligand using ^1H,^15N HSQC experiments (Figure 5). Following literature examples,[31] chemical shift perturbations (CSPs) were considered to be significant (SSPs) in case the observed Δδ1H,15N was greater than the population mean plus the standard deviation (μ + 1σ). Such chemical shift changes may directly originate from the interaction or might be indirect and thus be the result of binding-induced conformational changes. Based on its activity against NDM-1 (Table 1) and solubility, 1d was selected for detailed analysis (Figure S2, Supporting Information). […] In order to exclude aggregation of 1d, we also performed additional ^1H,^15N HSQC titration experiments using 5% DMSO or 5% ethanol (EtOH). Some minor chemical shift variations were observed upon the addition of the co-solvents, as expected,[34] whereas neither protein precipitation nor alteration of the overall structure of NDM-1 was detected (Figures S3 and S4, Supporting Information). The chemical shift changes of 234 backbone amides were monitored. […]

E. coli ATCC 25922 NDM-1 = type: cell-based; settings: in combination with EDTA 100 μM (control for inhibition of NDM-1)
Procedure: as §3

Sequence of GIM-1 (Q704V1 entry or part of it): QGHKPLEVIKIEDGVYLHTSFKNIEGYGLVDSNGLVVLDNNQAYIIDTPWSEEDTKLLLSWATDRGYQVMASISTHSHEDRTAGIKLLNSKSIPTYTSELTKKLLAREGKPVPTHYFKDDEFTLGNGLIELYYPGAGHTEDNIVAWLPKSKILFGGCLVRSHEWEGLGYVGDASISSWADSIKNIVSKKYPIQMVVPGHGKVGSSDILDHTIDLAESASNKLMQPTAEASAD
T1 sequence (C7C422 29-270 limits assumed): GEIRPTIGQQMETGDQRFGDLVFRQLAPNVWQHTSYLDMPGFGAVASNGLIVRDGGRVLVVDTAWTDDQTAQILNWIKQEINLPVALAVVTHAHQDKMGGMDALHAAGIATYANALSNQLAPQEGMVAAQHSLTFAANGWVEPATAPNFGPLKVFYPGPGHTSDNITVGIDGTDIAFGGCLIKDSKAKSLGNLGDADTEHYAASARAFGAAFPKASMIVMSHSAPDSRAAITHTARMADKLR

COC(=O)[C@H](NP(=O)(CCSC(C)=O)OC)c1ccccc1 (mixture of isomers) [1c, Methyl (R)-2-(((R/S)-(2-(Acetylthio)ethyl) (methoxy)phosphoryl)amino)-2-phenylacetate]
IC50 (in vitro): > 500 µM
IC50 against purified GIM-1 (GIM-1): N.I.
IC50 against purified NDM-1 (NDM-1 [1]): N.I
IC50 (VIM-2): 500 µM

CCO[P@@](=O)(N[C@@H](C(=O)OC)c1ccccc1)[C@@H](CSC(C)=O)Cc1ccccc1 (mixture of isomers) [1g, Methyl (R)-2-(((R/S)-((R/S)-1-(Acetylthio)-3-phenylpropan-2-yl) (ethoxy)phosphoryl)amino)-2-phenylacetate]
Solubility in MIC assay [2]: could not be dissolved
IC50 against purified GIM-1 (GIM-1): P.
IC50 against purified NDM-1 (NDM-1 [1]): P.
IC50 against purified VIM-2 (VIM-2): P.

COP(=O)(CCSC(C)=O)NCc1ccccn1 (racemic) [1a, (R/S)-(2-(Methoxy((pyridin-2-ylmethyl)amino)phosphoryl)ethyl) Ethanethioate]
IC50 at 24 h (in vitro): > 500 µM
IC50 (GIM-1): 86 µM
IC50 against purified NDM-1 (NDM-1 [1]): N.I.
IC50 against purified VIM-2 (VIM-2): N.I.

COP(=O)(CCSC(C)=O)N(C)Cc1ccccn1 (racemic) [1b, (R/S)-(2-(Methoxy(methyl(pyridin-2-ylmethyl)amino)phosphoryl)ethyl) Ethanethioate]
IC50 at 24 h (in vitro): > 500 µM
IC50 (GIM-1): 109 µM
IC50 (NDM-1 [1]): 356 µM

COP(=O)(CCSC(C)=O)N(Cc1ccccn1)Cc1ccccn1 (racemic) [1d, (R/S)-(2-((Bis(pyridin-2-ylmethyl)amino) (methoxy)phosphoryl)ethyl) Ethanethioate]
IC50 (in vitro): > 500 µM
IC50 against purified GIM-1 (GIM-1): N.I.
Enzymatic modification of the structure by NDM-1 during the NMR studies (NDM-1 [3]): no sign for enzymatic modification
Binding to NDM-1 by chemical shift perturbation (NDM-1 [3]; 0.25 mM 15N-labeled NDM-1, up to 1:10 protein/ligand, 310 K): specific binding
IC50 (NDM-1 [1]): 430 µM
IC50 against purified VIM-2 (VIM-2): N.I.
Solubility [4]: limited solubility

CCOP(=O)(NCc1ccccn1)C(CSC(C)=O)Cc1ccccc1 (racemic) [1e, S-((R/S)-2-((R/S)-(2-(Ethoxy((pyridine-2-ylmethyl)amino)phosphoryl)-3-phenylpropyl) Ethanethioate]
IC50 (in vitro): 201 µM
Solubility in MIC assay [2]: could not be dissolved
IC50 against purified NDM-1 (NDM-1 [1]): N.I.
IC50 against purified VIM-2 (VIM-2): N.I.

CCO[P@](=O)([C@@H](CSC(C)=O)Cc1ccccc1)N(C)Cc1ccccn1 (racemic) [1f, S-((R/S)-2-((R/S)-Ethoxy(methyl(pyridin-2-ylmethyl)amino)phosphoryl)-3-phenylpropyl) Ethanethioate]
IC50 (in vitro): 90.7 µM
Solubility in MIC assay [2]: could not be dissolved
IC50 against purified GIM-1 (GIM-1): P.
IC50 against purified NDM-1 (NDM-1 [1]): P.
IC50 against purified VIM-2 (VIM-2): P.

CCO[P@](=O)([C@@H](CSC(C)=O)Cc1ccccc1)N(Cc1ccccn1)Cc1ccccn1 (racemic) [1h, S-((R/S)-2-((R/S)-(Bis(pyridin-2-ylmethyl)amino)(ethoxy)phosphoryl)-3-phenylpropyl) Ethanethioate]
IC50 (in vitro): 69.2 µM
IC50 against purified GIM-1 (GIM-1): P.
IC50 against purified NDM-1 (NDM-1 [1]): P.
IC50 against purified VIM-2 (VIM-2): P.

O=C(O)CN(CCN(CC(=O)O)CC(=O)O)CC(=O)O [EDTA]
Minimum inhibitory concentration of meropenem (E. coli ATCC 25922 NDM-1): < 2 µg/mL

COP(=O)(CCS)NCc1ccccn1 (stereo not drawn) [compound 2]
IC50 against purified GIM-1 (GIM-1): N.I.
IC50 against purified NDM-1 (NDM-1 [1]): N.I.
IC50 against purified VIM-2 (VIM-2): N.I.
